What was measured:
[1] = system: rat focal cerebral ischemia models; experiment: NSS grading (modified neurological severity scores, 16-point system) in rat focal cerebral ischemia models; assay type: in vivo; conditions: GM-1 positive drug control group
Method: Preparing rat focal cerebral ischemia models through a modified Zea Longa method; grading the rats which were fully conscious after operation according to a modified NSS grading standard (16-point system); arranging a sham operation group, a model group, a positive drug control group, a rLZ-8 high-dosage group (70 μg·kg^−1), a rLZ-8 middle-dosage group (35 μg·kg^−1) and a rLZ-8 low-dosage group (17.5 μg·kg^−1); and injecting intraperitoneally, twice a day, wherein the same volume of physiological saline was injected into the sham operation group and the model group, for consecutive 7 days. A positive drug in the positive drug control group was the GM-1.

[2] = Weights of rats with focal cerebral ischemia; assay type: in vivo, rat; conditions: GM-1 group, in g (unit assumed)
Source text: Weighing rats before modeling; preparing rat focal cerebral ischemia models through a modified Zea Longa method; weighing the rats on the first postoperative day; and weighing the rats after consecutively administrating a drug for 7 days.

ED-1 positive cells = experiment: ED-1 positive cell expression in brain tissue (immunohistochemistry); assay type: in vivo, rat; conditions: GM-1 group; after modeling for 8 days
Method: The rLZ-8 high-dosage group, the rLZ-8 middle-dosage group and the rLZ-8 low-dosage group were provided and prepared by physiological saline to respectively have a concentration of 70 μg·ml^−1, 35 μg·ml^−1 and 17.5 μg·ml^−1. ED-1 antibody was provided by Wuhan Boster Biological Technology Co., Ltd., and PV-6000 two-step method immunohistochemical detection reagent was provided by Beijing Zhongshan Golden Bridge Biotechnology Co., Ltd.
The sham operation group, the model group, the positive drug control group, the rLZ-8 high-dosage group (70 μg·kg^−1), the rLZ-8 middle-dosage group (35 μg·kg^−1) and the rLZ-8 low-dosage group (17.5 μg·kg^−1) were provided.
After being embedded by conventional paraffin and sectioned, a brain tissue paraffin section was tested through an immunologic tissue chemical staining method to test an ED-1 positive cell expression thereof. […]

apoptotic cells = experiment: Test of apoptosis in brain tissue by TUNEL kit; assay type: in vivo, rat; conditions: GM-1 group; after modeling for 8 days
Method: The rLZ-8 high-dosage group, the rLZ-8 middle-dosage group and the rLZ-8 low-dosage group were provided and prepared by physiological saline to respectively have a concentration of 70 μg·ml^−1, 35 μg·ml^−1 and 17.5 μg·ml^−1. TUNEL kit.
The sham operation group, the model group, the positive drug control group, the rLZ-8 high-dosage group (70 μg·ml^−1), the rLZ-8 middle-dosage group (35 μg·ml^−1) and the rLZ-8 low-dosage group (17.5 μg·ml^−1) were provided.
After being embedded by conventional paraffin and sectioned, a brain tissue paraffin section was processed according to instructions of the TUNEL kit. […]

monosialotetrahexosyl ganglioside sodium injection [GM-1]
NSS grading ([1]; 1st day): 4.33 ± 1.30 | NSS grading ([1]; 2nd day): 3.92 ± 1.38 | NSS grading ([1]; 3rd day): 3.58 ± 1.24 | NSS grading ([1]; 4th day): 2.75 ± 1.09 | NSS grading ([1]; 5th day): 2.50 ± 1.00 | NSS grading ([1]; 6th day): 2.58 ± 1.08 | NSS grading ([1]; 7th day): 2.41 ± 1.00 | NSS grading ([1]; i.p. twice a day, 0th day, n=12): 4.75 ± 1.30 | Weights of rats ([2]; 0th day after modeling (before modeling)): 266.17 ± 21.21 | Weights of rats ([2]; 1st day after modeling): 246.17 ± 21.99 | Weights of rats ([2]; 8th day after modeling, drug for 7 days): 251.17 ± 40.31 | ED-1 positive cell number (ED-1 positive cells): 13.87 ± 2.39 | Apoptotic cell number (TUNEL) (apoptotic cells): 23.10 ± 2.47
